Data on 15 molecules can be found in patent publication US20140066431A1, “Benzoxazepines as Inhibitors of PI3K/mTOR and Methods of Their Use and Manufacture” (Exelixis, Inc., priority 2010, published 2014).

This assay has as its target mTOR/GbL/Raptor (mTORC1) (Homo sapiens, UniProt P42345). Kind of assay: mTOR/GbL/Raptor (mTORC1) ELISA assay. Format: biochemical. The conditions noted are these: 0.2 nM mTORC1, 10 μM ATP, 50 nM 4E-BP1. The method, then:
The measurement of mTORC1 enzyme activity was performed in an ELISA assay format following the phosphorylation of 4E-BP1 protein. All experiments were performed in the 384-well format. Generally, 0.5 μL DMSO containing varying concentrations of the test compound was mixed with 15 μL enzyme solution. Kinase reactions were initiated with the addition of 15 μL of substrates-containing solution. The assay conditions were as follows; 0.2 nM mTORC1, 10 μM ATP and 50 nM NHis-tagged 4E-BP1 in 20 mM Hepes, pH 7.2, 1 mM DTT, 50 mM NaCl, 10 mM MnCl2, 0.02 mg/mL BSA, 0.01% CHAPS, 50 mM β-glycerophosphate. Following an incubation of 120 minutes at ambient temperature, 20 μL of the reaction volume was transferred to a Ni-Chelate-coated 384-well plate. The binding step of the 4E-BP1 protein proceeded for 60 minutes, followed by washing 4 times each with 50 μL of Tris-buffered saline solution (TBS). Anti-phospho-4E-BP1 rabbit-IgG (20 μL, 1:5000) in 5% BSA-TBST (0.2% Tween-20 in TBS) was added and further incubated for 60 minutes. Incubation with a secondary HRP-tagged anti-IgG was similarly performed after washing off the primary antibody (4 washes of 50 μL). Following the final wash step with TBST, 20 μL of SuperSignal ELISA Femto (Pierce Biotechnology) was added and the luminescence measured using an EnVision plate reader.
In general terms: ELISA stands for enzyme-linked immunosorbent assay.

With `Cc1nc2ccc(-c3ccc4c(c3)CN(C(=O)N3CC[S+]([O-])CC3)CCO4)cc2[nH]1` [compound 101, 7-(2-methyl-1H-benzimidazol-6-yl)-4-[(1-oxidothiomorpholin-4-yl)carbonyl]-2,3,4,5-tetrahydro-1,4-benzoxazepine], the “IC50 (mTORC1 ELISA)” value is “not active”. Take `Cc1nc2ccc(-c3ccc4c(c3)CN(C(=O)N3CCN(C)CC3c3ccccc3)CCO4)cc2[nH]1` (stereo not drawn) [compound 144, 7-(2-methyl-1H-benzimidazol-6-yl)-4-[(4-methyl-2-phenylpiperazin-1-yl)carbonyl]-2,3,4,5-tetrahydro-1,4-benzoxazephin]: the “IC50 (mTORC1 ELISA)” value is reported as “not active”. The entry for `Cc1nc2ccc(-c3ccc4c(c3)CN(C(=O)N3CCN(c5ccc([N+](=O)[O-])cc5)CC3)CCO4)cc2[nH]1` [compound 168, 7-(2-methyl-1H-benzimidazol-6-yl)-4-{[4-(4-nitrophenyl)piperazin-1-yl]carbonyl}-2,3,4,5-tetrahydro-1,4-benzoxazepine] is “not active”; for `Cc1nc2ccc(-c3ccc4c(c3)CN(C(=O)N3[C@@H]5CC[C@H]3C[C@@H](CO)C5)CCO4)cc2[nH]1` [compound 112, (8-{[7-(2-methyl-1H-benzimidazol-6-yl)-2,3-dihydro-1,4-benzoxazepin-4(5H)-yl]carbonyl}-8-azabicyclo[3.2.1]oct-3-(endo)-yl)methanol] it is “not active”. The entry for `CC1CCN(C(=O)N2CCOc3ccc(-c4cc(NCc5ccccc5)[nH]n4)cc3C2)CC1` [compound 9, 3-{4-[(4-methylpiperidin-1-yl)carbonyl]-2,3,4,5-tetrahydro-1,4-benzoxazepin-7-yl}-N-(phenylmethyl)-1H-pyrazol-5-amine] is “not active”; for `CCOC(=O)CN(Cc1ccccc1)C(=O)N1CCOc2ccc(-c3ccc4nc(C)[nH]c4c3)cc2C1` [compound 151, ethyl N-{[7-[2-methyl-1H-benzimidazol-6-yl)-2,3-dihydro-1,4-benzoxazepin-4(5H)-yl]carbonyl}-N-(phenylmethyl)glycinate] it is “not active”; for `Cc1nc2ccc(-c3ccc4c(c3)CN(C(=O)N3CC[C@@H](O)C3)CCO4)cc2[nH]1` [compound 78, (3R)-1-{[7-(2-methyl-1H-benzimidazol-6-yl)-2,3-dihydro-1,4-benzoxazepin-4(5H)-yl]carbonyl}pyrrolidin-3-ol] it is “not active”. The entry for `Cc1nc2ccc(-c3ccc4c(c3)CN(C(=O)N3CCC(C5CCNCC5)CC3)CCO4)cc2[nH]1` [compound 71, 1-{[7-(2-methyl-1H-benzimidazol-6-yl)-2,3-dihydro-1,4-benzoxazepin-4(5H)-yl]carbonyl}-4,4′-bipiperidine] is “not active”; for `Cc1nc2ccc(-c3ccc4c(c3)CN(C(=O)N3CCC(O)(C(F)(F)F)CC3c3ccc(F)c(F)c3)CCO4)cc2[nH]1` (stereo not drawn) [compound 119, 2-(3,4-difluorophenyl)-1-{[7-(2-methyl-1H-benzimidazol-6-yl)-2,3-dihydro-1,4-benzoxazepin-4(5H)-yl]carbonyl}-4-(trifluoromethyl)piperidin-4-ol] it is “not active”.

With `Cc1nc2ccc(-c3ccc4c(c3)CN(C(=O)N3CCN(C(=O)c5ccco5)CC3)CCO4)cc2[nH]1` [compound 158, 4-{[4-(furan-2-ylcarbonyl)piperazin-1-yl]carbonyl}-7-(2-methyl-1H-benzimidazol-6-yl)-2,3,4,5-tetrahydro-1,4-benzoxazepine], the “IC50 (mTORC1 ELISA)” value is “not active”. As for `Cc1nc2ccc(-c3ccc4c(c3)CN(C(=O)N3CCCCC3c3cc(C(F)(F)F)cc(C(F)(F)F)c3)CCO4)cc2[nH]1` (stereo not drawn) [compound 115, 4-({2-[3,5-bis(trifluoromethyl)phenyl]piperidin-1-yl}carbonyl)-7-(2-methyl-1H-benzimidazol-6-yl)-2,3,4,5-tetrahydro-1,4-benzoxazepine], the entry is “not active”; as for `Cc1nc2ccc(-c3ccc4c(c3)CN(C(=O)N3CC[C@H](O)C3)CCO4)cc2[nH]1` [compound 82, (3S)-1-{[7-(2-methyl-1H-benzimidazol-6-yl)-2,3-dihydro-1,4-benzoxazepin-4(5H)-yl]carbonyl}pyrrolidin-3-ol], “not active”; as for `Cc1nc2ccc(-c3ccc4c(c3)CN(C(=O)N3CCCC3)CCO4)cc2[nH]1` [compound 87, 7-(2-methyl-1H-benzimidazol-6-yl)-4-(pyrrolidin-1-ylcarbonyl)-2,3,4,5-tetrahydro-1,4-benzoxazepine], “not active”. The entry for `CC(=O)c1ccc(N2CCN(C(=O)N3CCOc4ccc(-c5ccc6nc(C)[nH]c6c5)cc4C3)CC2)cc1` [compound 169, 1-[4-(4-{[7-(2-methyl-1H-benzimidazol-6-yl)-2,3-dihydro-1,4-benzoxazepin-4(5H)-yl]carbonyl}piperazin-1-yl)phenyl]ethanone] is “not active”. `Cc1nc2ccc(-c3ccc4c(c3)CN(C(=O)N3CCOCC3)CCO4)cc2[nH]1` [compound 132, 7-(2-methyl-1H-benzimidazol-6-yl)-4-(morpholin-4-ylcarbonyl)-2,3,4,5-tetrahydro-1,4-benzoxazepine]: the “IC50 (mTORC1 ELISA)” value is “not active”.
